In patent US9102637B2, “Bicyclic thiazole compounds” (CARNA BIOSCIENCES INC., priority 2013, dated 2015):

How the values were obtained:
[1] = tested on: human colon cancer cell line HCT-116; assay: In vitro cell proliferation assay; assay type: cell-based; conditions: HCT-116 cell number, 72 hours of treatment
Description: In Vitro Cell Proliferation Assay
The human colon cancer cell line HCT-116 was seeded at 600 cells/well in 96 well-plate (ThermoFisher) using RPMI medium containing 2 mM L-glutamine (Invitrogen) supplemented with 10% FCS (Invitrogen) and 1% penicillin/streptomycin (Sigma) and maintained at 37° C., 5% CO2 and 100% humidity. The following day, old medium was withdrawn and the fresh medium was added. Initial numbers of cells were counted before adding compounds. Then cells were treated in duplicates with compounds (a half-logarithmic serial dilution from 10 μM). Eight untreated control wells were incubated in each plate. After 72 hours of treatment, cells were fixed with 2% paraformaldehyde, and the nucleus were stained with Hoechst 33258 (Invitrogen). The numbers of cells were counted with ArrayScan™ VTI (ThermoFisher Scientific).

[2] = target: human TNIK (N-terminal segment, TNIK_N, residues 1-314) (Homo sapiens (Human), UniProt Q9UKE5); assay: TNIK kinase assay (mobility shift); assay type: biochemical; conditions: TNIK_N kinase activity, 25 μM ATP, 1 h at room temperature
In short: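 GST-tagged human TNIK residues 1-314 (Sf21 baculovirus) at 0.08 ng/μl phosphorylated 1 μM FITC-peptide with 25 μM ATP. Buffer: 20 mM Hepes pH 7.5, 5 mM MgCl2, 2 mM DTT, 1% DMSO; 1 h at room temperature, stopped with EDTA. Mobility-shift detection; activity = P/(P+S).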

Chain of human TNIK (N-terminal segment, TNIK_N, residues 1-314) (Q9UKE5 1-314): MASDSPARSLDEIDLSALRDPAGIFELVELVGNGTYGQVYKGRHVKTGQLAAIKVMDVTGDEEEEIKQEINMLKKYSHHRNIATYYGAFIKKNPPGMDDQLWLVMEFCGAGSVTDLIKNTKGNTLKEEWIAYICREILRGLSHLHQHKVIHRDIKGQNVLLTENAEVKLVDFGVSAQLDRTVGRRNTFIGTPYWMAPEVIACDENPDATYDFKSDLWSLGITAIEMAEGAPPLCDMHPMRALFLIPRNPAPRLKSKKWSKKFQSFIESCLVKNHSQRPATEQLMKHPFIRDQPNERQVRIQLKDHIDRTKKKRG

IC50 [1] [nM]	IC50 [2] [nM]	Compound
100 to 1000	17	CN1CCN(c2ccc(C(=O)Nc3sc(N(C)c4ccc5ncccc5c4)nc3C(N)=O)cc2)CC1 [Example 28, 2-[methyl(quinolin-6-yl)amino]-5-[4-(4-methylpiperazin-1-yl]benzamido)thiazole-4-carboxamide]
< 100	20.3	NC(=O)c1nc(Nc2ccc3ccccc3c2)sc1NC(=O)c1ccc(N)cc1 [Example 16, 5-(4-aminobenzamido)-2-(naphthalen-2-ylamino) thiazole-4-carboxamide]
< 100	5.1	CN1CCN(Cc2ccc(C(=O)Nc3sc(Nc4ccc5ccccc5c4)nc3C(N)=O)cc2)CC1 [Example 17, 5-{4-[(4-methylpiperazin-1-yl)methyl]benzamido}-2-(naphthalen-2-ylamino)thiazole-4-carboxamide]
< 100	12.7	NC(=O)c1nc(Nc2ccc3ccccc3c2)sc1NC(=O)c1ccc(N2CCC(O)CC2)cc1 [Example 97, 5-[4-(4-hydroxypiperidin-1-yl)benzamido]-2-(naphthalen-2-ylamino)thiazole-4-carboxamide]
< 100	8.6	CN(C)CCNc1ccc(C(=O)Nc2sc(Nc3ccc4ccccc4c3)nc2C(N)=O)cc1 [Example 11, 5-{4-[2-(dimethylamino)ethylamino]benzamido}-2-(naphthalen-2-ylamino)thiazole-4-carboxamide]
< 100		Cc1ccc(C(=O)Nc2sc(Nc3ccc4ccccc4c3)nc2C(N)=O)s1 [Example 34, 5-(5-methylthiophene-2-carboxamido)-2-(naph-thalen-2-ylamino)thiazole-4-carboxamide]
< 100	5.9	NC(=O)c1nc(Nc2ccc3ccccc3c2)sc1NC(=O)c1ccc(Cn2cnnn2)cc1 [Example 205, 5-(4-[(1H-tetrazol-1-yl)methyl)benzamido]-2-(naphthalen-2-ylamino)thiazole-4-carboxamide]
1000 to 10000		COc1ccc2cc(Nc3nc(C(N)=O)c(NC(=O)c4ccsc4)s3)ccc2c1 [Example 73, 2-[(6-methoxynaphthalen-2-yl)amino]-5-(thio-phene-3-carboxamido)thiazole-4-carboxamide]
1000 to 10000	36.3	CN1CCN(c2ccc(C(=O)Nc3sc(N(C)c4ccc5ccccc5c4)nc3C(N)=O)cc2)CC1 [Example 65, 2-[methyl(naphthalen-2-yl)amino]-5-[4-(4-methyl-piperazin-1-yl)benzamido]thiazole-4-carboxamide]
< 100	8.6	NC(=O)c1nc(Nc2ccc3ccccc3c2)sc1NC(=O)c1ccc(CN2CCOCC2)cc1 [Example 18, 5-[4-(morpholinomethyl)benzamido]-2-(naphthalen-2-ylamino)thiazole-4-carboxamide]
1000 to 10000	15.6	CN1CCN(c2ccc(C(=O)Nc3sc(Nc4cccc5ncccc45)nc3C(N)=O)cc2)CC1 [Example 26, 5-[4-(4-methylpiperazin-1-yl)benzamido]-2-(quinolin-5-ylamino)thiazole-4-carboxamide]
< 100	3	NC(=O)c1nc(Nc2ccc3ccccc3c2)sc1NC(=O)c1ccc(Cn2ccnc2)cc1 [Example 208, 5-{4-[(1H-imidazol-1-yl)methyl]benzamido}-2-(naphthalen-2-ylamino)thiazole-4-carboxamide]
1000 to 10000	19.1	CN1CCN(c2ccc(C(=O)Nc3sc(Nc4cccc5cccnc45)nc3C(N)=O)cc2)CC1 [Example 27, 5-[4-(4-methylpiperazin-1-yl)benzamido]-2-(quinolin-8-ylamino)thiazole-4-carboxamide]
< 100		NC(=O)c1nc(Nc2ccc3ccccc3c2)sc1NC(=O)c1ccc(N2CCOCC2)cc1 [Example 15, 5-(4-morpholinobenzamido)-2-(naphthalen-2-yl-amino)thiazole-4-carboxamide]
< 100		CN(C)Cc1ccc(C(=O)Nc2sc(Nc3ccc4ccccc4c3)nc2C(N)=O)cc1 [Example 20, 5-{4-[(dimethylamino)methyl]benzamido}-2-(naphthalen-2-ylamino)thiazole-4-carboxamide]
100 to 1000	12	NC(=O)c1nc(Nc2ccc3cnccc3c2)sc1NC(=O)c1ccsc1 [Example 46, 2-(isoquinolin-6-ylamino)-5-(thiophene-3-carbox-amido)thiazole-4-carboxamide]
< 100		NC(=O)c1nc(Nc2ccc3ccccc3c2)sc1NC(=O)c1ccc(NC(=O)CO)cc1 [Example 21, 5-[4-(2-hydroxyacetamido)benzamido]-2-(naphthalen-2-ylamino)thiazole-4-carboxamide]
100 to 1000	22.7	NC(=O)c1nc(Nc2ccc3ccccc3c2)sc1NC(=O)c1cc2sccc2[nH]1 [Example 35, N-[4-carbamoyl-2-(naphthalen-2-ylamino)thiazol-5-yl]-4H-thieno[3,2-b]pyrrole-5-carboxamide]
1000 to 10000		NC(=O)c1nc(Nc2ccnc3ccccc23)sc1NC(=O)c1csc(CN2CCOCC2)c1 [Example 67]

Second part, the compound before the results:

Compound	IC50 [1] [nM]	IC50 [2] [nM]
CC(C)=CC(=O)Nc1sc(Nc2ccc3ccccc3c2)nc1C(N)=O [Example 83, 5-(3-methylbut-2-enamido)-2-(naphthalen-2-yl-amino)thiazole-4-carboxamide]	1000 to 10000	12.7
NC(=O)c1nc(Nc2ccc3ccccc3c2)sc1NC(=O)c1ccc(F)cc1 [Example 8, 5-(4-fluorobenzamido)-2-(naphthalen-2-ylamino) thiazole-4-carboxamide]	100 to 1000	
NCc1ccc(C(=O)Nc2sc(Nc3ccc4ccccc4c3)nc2C(N)=O)cc1 [Example 23, 5-(4-aminomethylbenzamido)-2-(naphthalen-2-yl-amino)thiazole-4-carboxamide]	100 to 1000	5.3
NC(=O)c1nc(Nc2ccc3ccccc3c2)sc1NC(=O)c1ccc(NCCOCCO)cc1 [Example 78, 5-(4-{[2-(2-hydroxyethoxy)ethyl]amino}benz-amido)-2-(naphthalen-2-ylamino)thiazole-4-carbox-amide]	< 100	
NC(=O)c1nc(Nc2ccc3ccccc3c2)sc1NC(=O)c1ccc(NCCN2CCCCC2)cc1 [Example 13, 2-(naphthalen-2-ylamino)-5-{4-[2-(piperidin-1-yl)ethylamino]benzamido}thiazole-4-carboxamide]	< 100	8
NC(=O)c1nc(Nc2ccc3ccccc3c2)sc1NC(=O)c1ccc(Cn2cncn2)cc1 [Example 195, 5-{4-[(1H-1,2,4-triazol-1-yl)methyl]benzamido}-2-(naphthalen-2-ylamino)thiazole-4-carboxamide]	< 100	2.5
NC(=O)c1nc(Nc2ccc3ccccc3c2)sc1NC(=O)c1ccc(NCCO)cc1 [Example 10, 5-[4-(2-hydroxyethylamino)benzamido]-2-(naphthalen-2-ylamino)thiazole-4-carboxamide]	< 100	10.6
NC(=O)c1nc(Nc2ccc3ccccc3c2)sc1NC(=O)c1ccc(CN2CCNCC2)cc1 [Example 19, 2-(naphthalen-2-ylamino)-5-[4-(piperazin-1-ylmethyl)benzamido]thiazole-4-carboxamide]	100 to 1000	
CC(=O)Nc1ccc(C(=O)Nc2sc(Nc3ccc4ccccc4c3)nc2C(N)=O)cc1 [Example 2, 5-(4-acetamidobenzamido)-2-(naphthalen-2-ylamino)thiazole-4-carboxamide]	< 100	19.8
CN1CCN(CCCCCC(=O)Nc2sc(Nc3ccc4ccccc4c3)nc2C(N)=O)CC1 [Example 91, 5-[6-(4-methylpiperazin-1-yl)hexanamido]-2-(naphthalen-2-ylamino)thiazole-4-carboxamide]	100 to 1000	
CN1CCN(Cc2cc(C(=O)Nc3sc(Nc4ccc5ccccc5c4)nc3C(N)=O)cs2)CC1 [Example 60, 5-{5-[(4-methylpiperazin-1-yl)methyl]thiophene-3-carboxamido}-2-(naphthalen-2-ylamino) thiazole-4-carboxamide]	< 100	
CN1CCN(c2ccc(C(=O)Nc3sc(Nc4ccc5ncccc5c4)nc3C(N)=O)cc2)CC1 [Example 24, 5-[4-(4-methylpiperazin-1-yl)benzamido]-2-(quinolin-6-ylamino)thiazole-4-carboxamide]	1000 to 10000	4.1
CN1CCN(c2ccc(C(=O)Nc3sc(Nc4ccc5ccccc5c4)nc3C(N)=O)cc2)CC1 [Example 12, 5-[4-(4-methylpiperazin-1-yl)benzamido]-2-(naphthalen-2-ylamino)thiazole-4-carboxamide]	100 to 1000	10.2
NC(=O)c1nc(Nc2cccc3ncccc23)sc1NC(=O)c1csc(CN2CCOCC2)c1 [Example 49, 5-[5-(morpholinomethyl)thiophene-3-carbox-amido]-2-(quinolin-5-ylamino)thiazole-4-carboxamide]	1000 to 10000	
